In brackets after ≈: the same amount, converted by molar mass.
Tests used:
[1] = system: purified tubulin; assay: In vitro inhibition of tubulin polymerization; type: biochemical; conditions: purified bovine brain tubulin 1.5 mg/ml, preincubated 15 minutes at 37° C., GTP-induced, 350 nm
Protocol: IC50 values for tubulin polymerization were determined according to a previously described procedure (Bai et al., Cancer Research, 1996) and are summarized in Table 3 below. Purified tubulin is obtained from bovine brain cells as previously described (Hamel and Lin, Biochemistry, 1984). Various amounts of inhibitor were preincubated for 15 minutes at 37° C. with purified tubulin. After the incubation period, the reaction was cooled and GTP was added to induce tubulin polymerization. Polymerization was then monitored in a Gilford spectrophotometer at 350 nm. The final reaction mixtures (0.25 ml) contained 1.5 mg/ml tubulin, 0.6 mg/ml microtubule-associated proteins (MAPs), 0.5 mM GTP, […], 4% DMSO and 0.1M 4-morpholineethanesulfonate buffer (MES, pH 6.4). IC50 is the amount of inhibitor needed to inhibit tubulin polymerization 50% with respect to the amount of […] that occurs in the absence of inhibitor.

[2] = system: SF-268; assay: In vitro growth inhibition, SRB assay, CNS SF-268; type: cell-based; conditions: Homo sapiens, CNS SF-268, 48 hours incubation, read-out: GI50 (μM/mL) for Cell Line SF-268
Protocol: (§1) Newly prepared compounds were evaluated for cytotoxic activity against a variety of cell lines derived from human tumors using an assay system similar to the National Cancer Institute procedure previously described (Monks et al., J. Natl. Cancer Inst., 1991). Briefly, the cell suspensions, diluted according to the particular cell type and the expected target cell density (5,000-40,000 cells per well based on cell growth characteristics), were added by pipet (100 ul) to 96-well microtiter plates. Inoculates were allowed a preincubation time of 24-28 hours at 37 C for stabilization. Incubation with the inhibitor compounds lasted for 48 hours in 5% CO2 atmosphere and 100% humidity. Determination of cell growth was performed by in situ fixation of cells, followed by staining with a protein-binding dye sulforhodamine B (SRB), which binds to the basic amino acids of cellular macromolecules. The solubilized stain was measured spectrophotometrically.
(§2) Several compounds were evaluated for cytotoxic activity against […] P388 leukemia cell lines. The effective dose or ED50 value (defined as the effective dosage required for inhibition of 50% of cell growth) was measured. These and additional compounds were evaluated in terms of growth inhibitory activity against several other human cancer cell lines including: central nervous system (“CNS”, SF-268), pancreas (BXPC-3), non-small cell lung cancer (“lung-NSC”, NCI-H460), breast (MCF-7), colon (KM20L2), ovarian (OVCAR-3), and prostate (DU-145). The growth inhibition GI50 (defined as the dosage required for inhibition of tumor cell growth by 50%) is listed for each cell line.

[3] = system: BXPC-3; assay: In vitro growth inhibition, SRB assay, pancreas BXPC-3; type: cell-based; conditions: Homo sapiens, 48 hours incubation, read-out: GI50 (μM/mL) for Cell Line BXP-3
Protocol: as §1, §2

[4] = system: NCI-H460; assay: In vitro growth inhibition, SRB assay, lung-NSC NCI-H460; type: cell-based; conditions: Homo sapiens, lung-NSC NCI-H460, 48 hours incubation, read-out: GI50 (μM/mL) for Cell Line NCI-H460
Protocol: as §1, §2

[5] = system: MCF-7; assay: In vitro growth inhibition, SRB assay, breast MCF-7; type: cell-based; conditions: Homo sapiens, MCF7, breast MCF-7, 48 hours incubation, read-out: GI50 (μM/mL) for Cell Line MCF-7
Protocol: as §1, §2

[6] = system: KM20L2; assay: In vitro growth inhibition, SRB assay, colon KM20L2; type: cell-based; conditions: Homo sapiens, KM-20L2, colon KM20L2, 48 hours incubation, read-out: GI50 (μM/mL) for Cell Line KM20L2
Protocol: as §1, §2

[7] = system: DU-145; assay: In vitro growth inhibition, SRB assay, prostate DU-145; type: cell-based; conditions: Homo sapiens, prostate DU-145, 48 hours incubation, read-out: GI50 (μM/mL) for Cell Line DU-145
Protocol: as §1, §2

Row | Structure (SMILES) | IC50 [1] [µM] | GI50 [2] [µg/mL] | GI50 [3] [µg/mL] | GI50 [4] [µg/mL] | GI50 [5] [µg/mL] | GI50 [6] [µg/mL] | GI50 [7] [µg/mL]
2 | COc1ccc2c(c1)CCCC(c1cc(OC)c(OC)c(OC)c1)=C2 [Compound 1, 3-Methoxy-8-(3,4,5-trimethoxy-phenyl)-6,7-dihydro-5H-benzocycloheptene] | ~40 | 0.28 (≈ 0.823 µM) | 0.4 (≈ 1.18 µM) | 0.23 (≈ 0.676 µM) | 0.32 (≈ 0.94 µM) | 0.2 (≈ 0.588 µM) | 0.33 (≈ 0.969 µM)
3 | COc1ccc2c(c1)CCCC=C2c1cc(OC)c(OC)c(OC)c1 [Compound 2, 3-Methoxy-9-(3,4,5-trimethoxy-phenyl)-6,7-dihydro-5H-benzocycloheptene] | 1.4 ± 0.2 | > 10 | > 10 | > 10 | > 10 | > 10 | > 10
4 | COc1ccc2c(c1O)CCCC(c1cc(OC)c(OC)c(OC)c1)=C2 [Compound 3, 2-Methoxy-6-(3,4,5-trimethoxy-phenyl)-8,9-dihydro-7H-benzocyclohepten-1-ol] | ~40 |  |  |  |  |  | 
5 | COc1ccc(C(=O)C2=CCCCc3c2cc(OC)c(OC)c3OC)c(O)c1O [Compound 23, (2,3-Dihydroxy-4-methoxy-phenyl)-(1,2,3-trimethoxy-8,9-dihydro-7H-benzocyclohepten-5-yl)-methanone] | ~40 | 0.009 (≈ 0.0225 µM) | 0.017 (≈ 0.0425 µM) | 0.023 (≈ 0.0574 µM) | 0.0059 (≈ 0.0147 µM) | 0.031 (≈ 0.0774 µM) | 0.026 (≈ 0.0649 µM)
6 | COc1ccc(C(=O)C2=CCCCc3c2cc(OC)c(OC)c3OC)cc1O [Compound 24, (3-Hydroxy-4-methoxy-phenyl)-(1,2,3-trimethoxy-8,9-dihydro-7H-benzocyclohepten-5-yl)-methanone] | ~40 |  |  |  |  |  | 

Reference: patent publication US8394859B2, “Combretastatin analogs with tubulin binding activity” (Baylor University, priority 2005, dated 2013)
